Here are results for one molecule from patent US8513227B2, “Inhibition of inflammatory cytokine production with tanshinones” (The Feinstein Institute for Medical Research, priority 2006, dated 2013).

One assay concerns TNF. The experiment in a line: LPS-induced TNF release in human peripheral blood mononuclear cells (ELISA). The assay is classed as cell-based. As to conditions: 100 μM, FIG. 2B lower panel. On the procedure: Cell culture. Murine macrophage-like RAW 264.7 cells were obtained from the American Type Culture Collection (ATCC, Rockville, Md.), and primary peritoneal macrophages were isolated from Balb/C mice (male, 7-8 weeks, 20-25 grams) at 2-3 days after intraperitoneal injection of 2 ml thioglycollate broth (4%) as previously described (Chen et al. 2004; Rendon-Mitchell et al. 2003). Murine macrophages were pre-cultured in RPMI 1640 medium (Gibco BRL, Grand Island, N.Y.) supplemented with 10% fetal bovine serum (FBS) and 2 mmol/L glutamine. […]
LPS stimulation. […] At 16 hours after LPS stimulation, levels of HMGB1 in the culture medium were determined as previously described (Chen et al. 2004; Rendon-Mitchell et al. 2003; Wang et al. 1999).
(§1) TNF ELISA. The levels of TNF in the culture medium or serum were determined using commercial enzyme linked immunosorbent assay (ELISA) kits (Catalog no. MTA00, R & D Systems, Minneapolis, Minn.) with reference to standard curves of purified recombinant TNF at various dilutions as previously described (Chen et al. 2004; Rendon-Mitchell et al. 2003; Wang et al. 2006).

The test system of assay [1] is sepsis-induced cardiovascular dysfunction. The experiment in a line: Sepsis-induced cardiovascular dysfunction in CLP rats (radiolabeled microspheres). The assay is classed as in vivo, Sprague-Dawley rats. As to conditions: 20 h after CLP. How it is done:
(§2) Animal models of endotoxemia and sepsis. This study was approved and performed in accordance with the guidelines for the care and use of laboratory animals at the Feinstein Institute for Medical Research, Manhasset, N.Y. Endotoxemia was induced in Balb/C mice (male, 7-8 weeks) by intraperitoneal injection of bacterial endotoxin (LPS, 15 mg/kg) as previously described (Chen et al. 2005; Wang et al. 1999; Wang et al. 2006). Sepsis was induced in male Balb/C mice (7-8 weeks, 20-25 g) or Sprague-Dawley rats (290-310 g) by cecal ligation and puncture (CLP) as previously described (Wang et al. 2006; Yang et al. 2002b). Herbal components were administered intraperitoneally into mice at indicated doses and time points, and mice were monitored for survival for up to two weeks. In parallel experiments, mice were euthanized to collect blood at 28 h (following two doses of herbal components at −0.5 and +24 h) after endotoxemia, and at 52 h (following two doses of herbal components at +24 and +48 h) after CLP.
Measurement of cardiac output. A radiolabeled microsphere technique was used to measure cardiac output at 20 h after CLP or sham operation as previously described (Yang et al. 2002b). Briefly, a bolus of ^141Ce-labeled microspheres (4.0 μCi, DuPont NEN, Boston, Mass.) was injected into the left ventricle, where it mixed uniformly with the oxygenated blood at the root of the aorta, and subsequently distributed via aortic blood flow to the capillary beds within each organ. The reference blood sample was withdrawn from the femoral arterial catheter (at a rate of 0.7 ml/min) with a pump (Harvard Apparatus, Holliston, Mass.), after which isotonic sodium chloride solution was infused manually to replace the volume of blood lost. At 20 h post CLP, animals were sacrificed to harvest various organs for measurement of radioactivity with an automatic gamma counter (1470 Wizard; Wallac, Gaithersburg, Md.). Cardiac output and organ blood flow were calculated according to the following equations: cardiac output=[(RBF×CT)/Cr]× 1/100 and organ blood flow=[(RBF×Ct)/Cr]× 1/100, where RBF is the reference blood sample withdrawal rate (0.7 ml/min), CT is counts per minute of total injected dose, Ct is counts per minute per gram of tissue, and Cr is counts per minute in the reference blood sample. Stroke volume (SV) and total peripheral resistance (TPR) were calculated as previously described (Yang et al. 2002b).

In the next assay the test system is HMGB1. The experiment in a line: HMGB1-induced release of TNF and nitric oxide in murine macrophage cultures. As to conditions: concentrations up to 100 μM, preliminary data. The assay is classed as cell-based.
The test system of another assay is lethal sepsis. The experiment in a line: Lethal sepsis induced by cecal ligation and puncture (CLP) in Balb/C mice. The class given is in vivo. How it is done: as §2, §1
Nitric oxide assay. The levels of nitric oxide in the culture medium were determined indirectly by measuring NO^2− production with a colorimetric assay based on the Griess reaction (Rendon-Mitchell et al. 2003). NO2-concentrations were determined with reference to a standard curve generated with sodium nitrite at various dilutions.
(§3) HMGB1 western blotting analysis. The levels of HMGB1 in the culture medium or serum were determined by western blotting analysis as previously described (Chen et al. 2004; Rendon-Mitchell et al. 2003; Wang et al. 1999). The relative band intensity was quantified using NIH image 1.59 software to determine HMGB1 levels with reference to standard curves generated with purified HMGB1.
Tissue histology. At 48 hours after CLP, mice were euthanized in CO2 Chamber, and immediately perfused (transcardially) with phosphate buffer saline and 4% paraformaldehyde. Various tissues were harvested, sectioned, and stained with hematoxylin and eosin for morphology evaluation.

Another assay concerns lethal endotoxemia. The experiment in a line: Lethal endotoxemia in Balb/C mice (LPS 15 mg/kg i.p.). The assay is classed as in vivo. On the procedure:
as §2, §3

For the molecule `Cc1c(S(=O)(=O)[O-])oc2c1C(=O)C(=O)c1c-2ccc2c1CCCC2(C)C.[Na+]` [TSNIIA-SS, tanshinone IIA sodium sulfonate], in the assay on TNF, the “effect on LPS-induced release of TNF” value is “did not completely block”. Moreover, the heart rate in assay [1] (15 mg/kg, CLP group 378.3±25.1, n=6, p<0.05) is reported as 334.1±25.8 beats/minutes. The “total peripheral vascular resistance” value in assay [1] (FIG. 8A) was “dose-dependently reduced”. For the same molecule, in assay [1] (FIG. 8B), the cardiac stroke volume entry is listed as “significantly increased”. The cardiac output result in assay [1] (FIG. 8C) is “significantly increased”. Also, in assay [1] (CLP group 106.1±4.7, n=6, p>0.05), the “mean arterial blood pressure” value was 96.4±8.7 mm Hg. In the assay with HMGB1, the “attenuation of HMGB1-induced release of TNF” value is 50-60% and the “attenuation of HMGB1-induced release of nitric oxide” value is on record as 90-95%. In addition, the “signs of hepatic necrosis” value in the assay on lethal sepsis (15 mg/kg, histology 48 hours post onset of sepsis, control 2 out of 12 survivors) is given as “not observed in any of the 15 survivors”. In addition, the “circulating nitric oxide levels” value with lethal sepsis (52 h after the onset of sepsis, vehicle 18.0±4.5 μmol/L, n=3, P>0.05) was determined as 15.5 ± 3.3 µmol/L. Also, in the assay with lethal sepsis (52 h after the onset of sepsis, vehicle 65+15 ng/L, P>0.05), the “circulating TNF levels” value was 85+23 ng/L. For the same molecule, in the assay with lethal sepsis (repeated administration at 24, 48, 72, 96 hours post sepsis, control 33%, P<0.05), the “animal survival rate, lethal sepsis” value is 73%. For the same molecule, the “circulating HMGB1 levels in septic mice” value in the assay with lethal sepsis (repeated administration, 52 h post CLP, FIG. 7A, P<0.05) is “dose-dependently, and significantly attenuated”. Also, the “survival rate, lethal sepsis” value in the assay with lethal sepsis (single i.p. dose 15 mg/kg 24 h after onset of sepsis, saline control 33%, P>0.05) is given as 50%. Also, the “circulating HMGB1 levels, endotoxemia” value in the assay with lethal endotoxemia (LPS+vehicle 140±20 ng/ml, n=10, p<0.01) worked out at 40 ± 25 ng/mL. Besides, the “animal survival, lethal endotoxemia” value in the assay with lethal endotoxemia (repeated doses (+0.5, +24, +48, 72 hr), dose-dependent, control 20%, FIG. 6A) came out at 80%. Further, the “animal survival rate, lethal endotoxemia” value with lethal endotoxemia (single dose 15 mg/kg 30 minutes after LPS, saline control 25%, P>0.05) stood at 37.5%.
